# From patent publication US20230073777A1, “CYCLIC-AMP RESPONSE ELEMENT BINDING PROTEIN (CBP) AND/OR ADENOVIRAL E1A BINDING PROTEIN OF 300 KDA (P300) DEGRADATION COMPOUNDS AND METHODS OF USE” (CULLGEN (SHANGHAI), INC., priority 2019, published 2023)
# Where two headings read alike, the source gives them in different places.
# What was measured:
# P300 = P300 (Homo sapiens, UniProt Q09472); experiment: Immunoblotting of P300 protein levels in LNCaP or 22RV1 cells; format: cell-based; design: LNCaP or 22RV1 cells that express CBP/P300 proteins were treated with GNE-781 or the bivalent compounds; endogenous in cells; host or cells: LNCaP (clone FGC) or 22RV1 cells; conditions: read-out: Degradation (10 nM)
# How it was run: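 P300/CBP levels quantified by chemiluminescent immunoblot band densitometry, normalized against tubulin or vinculin loading controls. Lysates came from LNCaP or 22RV1 cells exposed to compounds or DMSO vehicle for indicated times.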
# LNCaP cells = experiment: LNCaP cell viability assay (CellTiter-Glo); format: cell-based; conditions: for IC50: Homo sapiens, 72 h, LNCaP prostate cancer cell viability inhibition, 3 days
# How it was run: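 Three-day treatment of LNCaP cells (5000 per well) across a 12-point, 3-fold dilution series starting at 10 μM. ATP luminescence (CellTiter-Glo) relative to untreated controls gave dose-response curves fitted nonlinearly for IC50.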
# [1] = percentage of inhibition of p300 at 10 nM (Table 2)
# [2] = percentage of inhibition of p300 at 10 nM (Table 3)
# Chain of P300 (Q09472 whole entry): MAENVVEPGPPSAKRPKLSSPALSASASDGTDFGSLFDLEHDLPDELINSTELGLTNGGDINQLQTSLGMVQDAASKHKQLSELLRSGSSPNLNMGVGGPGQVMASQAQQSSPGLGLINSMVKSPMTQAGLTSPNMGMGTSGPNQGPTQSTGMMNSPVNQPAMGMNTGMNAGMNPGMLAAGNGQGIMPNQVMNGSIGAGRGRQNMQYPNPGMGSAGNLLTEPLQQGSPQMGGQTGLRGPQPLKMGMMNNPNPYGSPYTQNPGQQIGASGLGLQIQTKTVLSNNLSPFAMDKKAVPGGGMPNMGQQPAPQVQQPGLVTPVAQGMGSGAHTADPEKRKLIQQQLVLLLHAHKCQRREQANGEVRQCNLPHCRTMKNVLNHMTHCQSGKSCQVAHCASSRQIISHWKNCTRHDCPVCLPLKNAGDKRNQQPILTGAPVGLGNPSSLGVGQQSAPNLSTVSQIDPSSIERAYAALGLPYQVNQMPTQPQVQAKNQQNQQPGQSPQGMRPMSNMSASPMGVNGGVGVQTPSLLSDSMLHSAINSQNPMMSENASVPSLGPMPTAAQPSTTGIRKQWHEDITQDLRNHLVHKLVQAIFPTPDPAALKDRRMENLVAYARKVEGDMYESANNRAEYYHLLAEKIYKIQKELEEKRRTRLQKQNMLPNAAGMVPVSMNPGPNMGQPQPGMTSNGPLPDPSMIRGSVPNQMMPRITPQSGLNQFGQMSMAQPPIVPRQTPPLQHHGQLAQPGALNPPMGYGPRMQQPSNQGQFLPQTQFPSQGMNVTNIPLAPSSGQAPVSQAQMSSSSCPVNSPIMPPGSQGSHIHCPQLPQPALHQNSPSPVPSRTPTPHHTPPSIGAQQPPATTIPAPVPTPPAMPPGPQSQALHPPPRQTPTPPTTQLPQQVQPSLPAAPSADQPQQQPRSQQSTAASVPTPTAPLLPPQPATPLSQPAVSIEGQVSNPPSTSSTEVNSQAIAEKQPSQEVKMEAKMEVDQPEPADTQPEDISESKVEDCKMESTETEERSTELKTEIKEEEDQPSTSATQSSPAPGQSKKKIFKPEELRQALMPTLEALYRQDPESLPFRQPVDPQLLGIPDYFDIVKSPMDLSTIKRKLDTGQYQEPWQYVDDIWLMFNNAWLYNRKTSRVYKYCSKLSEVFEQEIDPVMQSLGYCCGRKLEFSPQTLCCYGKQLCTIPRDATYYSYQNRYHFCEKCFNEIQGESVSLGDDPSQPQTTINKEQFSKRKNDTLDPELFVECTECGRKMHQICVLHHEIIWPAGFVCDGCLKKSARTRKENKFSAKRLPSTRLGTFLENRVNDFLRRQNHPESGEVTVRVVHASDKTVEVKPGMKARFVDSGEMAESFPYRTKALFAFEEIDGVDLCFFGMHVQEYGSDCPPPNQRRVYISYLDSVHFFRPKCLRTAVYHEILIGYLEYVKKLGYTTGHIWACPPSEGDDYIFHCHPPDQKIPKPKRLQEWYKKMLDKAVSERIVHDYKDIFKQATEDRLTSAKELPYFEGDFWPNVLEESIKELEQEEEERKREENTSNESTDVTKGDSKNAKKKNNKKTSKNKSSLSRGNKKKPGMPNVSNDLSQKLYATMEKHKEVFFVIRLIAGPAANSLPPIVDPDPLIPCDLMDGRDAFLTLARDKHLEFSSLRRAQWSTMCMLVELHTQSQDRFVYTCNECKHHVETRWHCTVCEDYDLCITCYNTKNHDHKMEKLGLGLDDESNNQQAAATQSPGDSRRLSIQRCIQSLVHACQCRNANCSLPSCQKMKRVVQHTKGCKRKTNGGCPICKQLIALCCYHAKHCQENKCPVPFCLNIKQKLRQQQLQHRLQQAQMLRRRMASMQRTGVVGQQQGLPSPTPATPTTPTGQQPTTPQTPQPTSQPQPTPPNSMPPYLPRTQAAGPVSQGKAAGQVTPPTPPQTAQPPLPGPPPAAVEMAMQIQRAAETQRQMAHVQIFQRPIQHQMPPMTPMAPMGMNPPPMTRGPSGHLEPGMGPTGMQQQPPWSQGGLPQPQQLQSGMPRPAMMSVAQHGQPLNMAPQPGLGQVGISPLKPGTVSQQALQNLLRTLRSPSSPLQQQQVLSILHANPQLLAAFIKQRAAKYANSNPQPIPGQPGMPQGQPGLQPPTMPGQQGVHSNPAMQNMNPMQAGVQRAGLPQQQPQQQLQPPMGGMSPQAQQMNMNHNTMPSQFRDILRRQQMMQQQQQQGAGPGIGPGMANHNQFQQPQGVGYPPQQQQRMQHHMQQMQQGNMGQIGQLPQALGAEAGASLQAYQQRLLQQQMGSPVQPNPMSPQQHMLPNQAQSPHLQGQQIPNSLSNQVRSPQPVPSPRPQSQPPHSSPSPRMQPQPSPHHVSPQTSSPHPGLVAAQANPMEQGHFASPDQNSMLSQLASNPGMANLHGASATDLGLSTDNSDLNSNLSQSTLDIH
inhibition at 0.01 µM (P300; [1]) [%],IC50 (LNCaP cells; CellTiter-Glo (Table 2)) [nM],inhibition at 0.01 µM (P300; [2]) [%],IC50 (LNCaP cells; CellTiter-Glo (Table 3)) [nM],SMILES,"viability of LNCaP cells (LNCaP cells; from 10 μM, 12-point 3-fold serial dilution, 3 days (FIG. 4))",inhibition at 0.01 µM (P300) [%]
–,–,> 80,0.5,"CC(=O)N1CCc2c(c(N3CCCc4cc(-c5cnn(C)c5)c(C(F)F)cc43)nn2C2CCN(C(=O)CCCCCCNc3ccc4c(c3)n(C)c(=O)n4C3CCC(=O)NC3=O)CC2)C1 (stereo not shown) [P-130, 3-(5-((7-(4-(5-acetyl-3-(7-(difluoromethyl)-6-(1-methyl-1H-pyrazol-4-yl)-3,4-dihydroquinolin-1(2H)-yl)-4,5,6,7-tetrahydro-1H-pyrazolo[4,3-c]pyridin-1-yl)piperidin-1-yl)-7-oxoheptyl)amino)-3-methyl-2-oxo-2,3-dihydro-1H-benzo[d]imidazol-1-yl)piperidine-2,6-dione]",–,–
–,–,> 80,0.2,"CC(=O)N1CCc2c(c(N3CCCc4cc(-c5cnn(C)c5)c(C(F)F)cc43)nn2C2CCN(C(=O)CCCCCCCCNc3cccc4c3n(C)c(=O)n4C3CCC(=O)NC3=O)CC2)C1 (stereo not shown) [P-160, 3-(4-((9-(4-(5-acetyl-3-(7-(difluoromethyl)-6-(1-methyl-1H-pyrazol-4-yl)-3,4-dihydroquinolin-1(2H)-yl)-4,5,6,7-tetrahydro-1H-pyrazolo[4,3-c]pyridin-1-yl)piperidin-1-yl)-9-oxononyl)amino)-3-methyl-2-oxo-2,3-dihydro-1H-benzo[d]imidazol-1-yl)piperidine-2,6-dione]",–,–

# More lines, now with the values behind:
SMILES,inhibition at 0.01 µM (P300; [1]) [%],IC50 (LNCaP cells; CellTiter-Glo (Table 2)) [nM],inhibition at 0.01 µM (P300; [2]) [%],IC50 (LNCaP cells; CellTiter-Glo (Table 3)) [nM],"viability of LNCaP cells (LNCaP cells; from 10 μM, 12-point 3-fold serial dilution, 3 days (FIG. 4))",inhibition at 0.01 µM (P300) [%]
"CNC(=O)N1CCc2c(c(N3CCCc4cc(-c5cnn(CC(=O)NCCOCCOCCOCCOCCNc6cccc7c6C(=O)N(C6CCC(=O)NC6=O)C7=O)c5)c(C(F)F)cc43)nn2C2CCOCC2)C1 (stereo not shown) [P-024, 3-(7-(Difluoromethyl)-6-(1-(17-((2-(2,6-dioxopiperidin-3-yl)-1,3-dioxoisoindolin-4-yl)amino)-2-oxo-6,9,12,15-tetraoxa-3-azaheptadecyl)-1H-pyrazol-4-yl)-3,4-dihydroquinolin-1(2H)-yl)-N-methyl-1-(tetrahydro-2H-pyran-4-yl)-1,4,6,7-tetrahydro-5H-pyrazolo[4,3-c]pyridine-5-carboxamide]",< 20,524,–,–,–,–
"CNC(=O)N1CCc2c(c(N3CCCc4cc(-c5cnn(CC(=O)NCCCCCCCNc6ccc7c(c6)C(=O)N(C6CCC(=O)NC6=O)C7=O)c5)c(C(F)F)cc43)nn2C2CCOCC2)C1 (stereo not shown) [P-026, 3-(7-(difluoromethyl)-6-(1-(2-((7-((2-(2,6-dioxopiperidin-3-yl)-1,3-dioxoisoindolin-5-yl)amino)heptyl)amino)-2-oxoethyl)-1H-pyrazol-4-yl)-3,4-dihydroquinolin-1(2H)-yl)-N-methyl-1-(tetrahydro-2H-pyran-4-yl)-1,4,6,7-tetrahydro-5H-pyrazolo[4,3-c]pyridine-5-carboxamide]",> 80,3.2,–,–,–,–
"CNC(=O)N1CCc2c(c(N3CCCc4cc(-c5cnn(C)c5)c(C(F)F)cc43)nn2C2CCN(C(=O)CCNc3ccc4c(c3)C(=O)N(C3CCC(=O)NC3=O)C4=O)CC2)C1 (stereo not shown) [P-002, 3-(7-(Difluoromethyl)-6-(1-methyl-1H-pyrazol-4-yl)-3,4-dihydroquinolin-1(2H)-yl)-1-(1-(3-((2-(2,6-dioxopiperidin-3-yl)-1,3-dioxoisoindolin-5-yl)amino)propanoyl)piperidin-4-yl)-N-methyl-1,4,6,7-tetrahydro-5H-pyrazolo[4,3-c]pyridine-5-carboxamide]",50 to 80,42.1,–,–,dose-dependently suppressed viability,–
"CC(=O)N1CCc2c(c(N3CCCc4cc(-c5cnn(C)c5)c(C(F)F)cc43)nn2C2CCN(CCN3CCC(COc4cccc5c4C(=O)N(C4CCC(=O)NC4=O)C5=O)CC3)CC2)C1 (stereo not shown) [P-167, 4-((1-(2-(4-(5-Acetyl-3-(7-(difluoromethyl)-6-(1-methyl-1H-pyrazol-4-yl)-3,4-dihydroquinolin-1(2H)-yl)-4,5,6,7-tetrahydro-1H-pyrazolo[4,3-c]pyridin-1-yl)piperidin-1-yl)ethyl)piperidin-4-yl)methoxy)-2-(2,6-dioxopiperidin-3-yl)isoindoline-1,3-dione]",–,–,–,92,–,< 20
